Experimental data: PubChem BioAssay AID806 (SRMLSC, 2007)
Active and inactive are the calls of the source. The rule behind the calls is not given here.

System: virus-infected cells, CPE inhibition, dose response
Test: PubChem AID 806
Details: for EC90: measured here: EC90 CPE inhibition; for CC50: measured here: cytotoxicity, cell viability IC50

Row | SMILES | EC50 | EC90 | CC50
1 | CCOC(=O)c1cnn(-c2ccccc2)c1-n1cccc1C(=O)C(=O)Nc1ccccc1C(F)(F)F | > 60 µM (inactive) | > 60 µM | > 60 µM
2 | COc1ccc(OC)c(-n2c(SCC(=O)Nc3cc(C)on3)nnc2-c2c[nH]c3ccccc23)c1 | > 60 µM (inactive) | > 60 µM | > 60 µM
3 | CC(C)CNC(=O)c1cccc(NC(=O)c2ccc(NC(=O)c3ccco3)cc2)c1 | > 60 µM (inactive) | > 60 µM | > 60 µM
4 | NC1C2CN(c3nc4c(cc3F)c(=O)c(C(=O)O)cn4-c3ccc(F)cc3F)CC12 (stereo not drawn) | – | > 60 µM | 45.1 µM
5 | COC(=O)Cc1c(C)nc2nc(-c3ccccc3)[nH]n2c1=O | > 60 µM (inactive) | > 60 µM | > 60 µM
6 | O=C1CC(C(=O)Nc2ccc(Br)cc2)C2(CCCC2)O1 (stereo not drawn) | > 60 µM (inactive) | > 60 µM | > 60 µM
7 | O=C(NCc1ccccc1)c1ccc(S(=O)(=O)N2CCCC2)cc1 | > 60 µM (inactive) | > 60 µM | > 60 µM
8 | COc1ccc(-c2nnc3ccc(SCC(=O)NCc4ccco4)nn23)cc1OC | > 60 µM (inactive) | > 60 µM | > 60 µM
9 | O=C(CSc1ccc2nnc(-c3ccc(F)cc3)n2n1)NCc1ccco1 | > 60 µM (inactive) | > 60 µM | > 60 µM
10 | COc1cccc(CNC(=O)c2ccc(S(=O)(=O)N3CCCC3)cc2)c1 | > 60 µM (inactive) | > 60 µM | > 60 µM
11 | CC(C)NC(=O)CN1CCN(c2ncccn2)CC1 | > 60 µM (inactive) | > 60 µM | > 60 µM
12 | CC1CCN(C(=O)Nc2cccc(NC(=O)N3CCC(C)CC3)c2)CC1 | > 60 µM (inactive) | > 60 µM | > 60 µM
13 | COc1ccc(OC)c(NC(=O)c2cc3ccccc3o2)c1 | > 60 µM (inactive) | > 60 µM | > 60 µM
14 | CC(C)(C)OC(=O)NCCc1nnc(SCc2c(Cl)cccc2Cl)o1 | > 60 µM (inactive) | > 60 µM | > 60 µM
15 | O=C(Nc1cccc(O)c1)c1noc2c1CCc1ccccc1-2 | > 60 µM (inactive) | > 60 µM | > 60 µM
16 | O=C(O)c1cccc(Nc2ncnc3c2cnn3-c2ccccc2)c1 | > 60 µM (inactive) | > 60 µM | > 60 µM
17 | Cc1cccc(NC(=O)C2CC(=O)OC23CCCCC3)c1 (stereo not drawn) | > 60 µM (inactive) | > 60 µM | > 60 µM
18 | Cc1ccc(-n2ncc3c(Nc4cccc(C(=O)O)c4)ncnc32)cc1 | > 60 µM (inactive) | > 60 µM | > 60 µM
19 | O=C(CSc1nnc2sc3ccccc3n12)NCc1ccco1 | – | > 60 µM | > 60 µM
20 | Cc1ccc(NC(=S)C2=C(O)c3sccc3N(C)S2(=O)=O)cc1 | 30.3 µM (inactive) | > 60 µM | > 60 µM
21 | COc1ccc(-n2ncc3c(N4CCCc5ccccc54)ncnc32)cc1 | > 60 µM (inactive) | > 60 µM | > 60 µM
22 | CCOc1ncccc1C(=O)NCc1ccc(OC)cc1 | > 60 µM (inactive) | > 60 µM | > 60 µM
23 | COc1ccc(C)cc1NC(=O)C1CC(=O)OC12CCCCC2 (stereo not drawn) | > 60 µM (inactive) | > 60 µM | > 60 µM

Row | SMILES | EC50 | EC90 | CC50
24 | COc1ccc(C2NC(=O)NC3=C2CCc2ccccc23)cc1 (stereo not drawn) | 3.6 µM | > 60 µM | > 60 µM
25 | O=C(c1cnn2c(C(F)(F)F)cc(-c3ccccc3)nc12)N1CCOCC1 | > 60 µM (inactive) | > 60 µM | > 60 µM
26 | CC(c1ccco1)N(C(=O)CSc1ccc(Br)cc1)c1ccccn1 (stereo not drawn) | > 60 µM (inactive) | > 60 µM | > 60 µM
27 | Cc1ccc(NC(=O)c2noc3c2CCc2ccccc2-3)cc1 | > 60 µM (inactive) | > 60 µM | > 60 µM
28 | CCOC(=O)/C=C1\SCC(=O)N1CC(=O)Nc1ccc(C(C)C)cc1 | > 60 µM (inactive) | > 60 µM | > 60 µM
29 | O=C(c1ccco1)N1CCn2c1nc1ccccc12 | > 60 µM (inactive) | > 60 µM | > 60 µM
30 | C=CCSc1nnc(-c2cccnc2)o1 | – | > 60 µM | > 60 µM
31 | C=CCSc1nnc(-c2ccc(Cl)cc2Cl)o1 | 59.2 µM (inactive) | > 60 µM | > 60 µM
32 | CC1CCN(c2ccc(C(=O)NCc3cccs3)cn2)CC1 | > 60 µM (inactive) | > 60 µM | > 60 µM
33 | COc1ccc(-n2ncc3c(N4CCc5ccccc54)ncnc32)cc1 | > 60 µM (inactive) | > 60 µM | > 60 µM
34 | CCOC(=O)/C=c1\s/c(=C\c2ccccc2OC)c(=O)n1CC(=O)N1CCOCC1 | > 60 µM (inactive) | > 60 µM | > 60 µM
35 | CCOC(=O)c1cccc(NC(=O)CCS(=O)(=O)c2cccc3nsnc23)c1 | > 60 µM (inactive) | > 60 µM | > 60 µM
36 | O=C(c1cc(-c2ccc(Cl)cc2)n(-c2ccc(Cl)cc2)n1)N1CCOCC1 | > 60 µM (inactive) | > 60 µM | 4.34 µM
37 | CC(C)(C)OC(=O)NCCc1nnc(SCc2ccc(Cl)cc2)o1 | > 60 µM (inactive) | > 60 µM | > 60 µM
38 | O=C(CSc1ccc2nnc(-c3ccncc3)n2n1)NCc1ccco1 | > 60 µM (inactive) | > 60 µM | > 60 µM
39 | CC1CN(C(=O)c2cnn3c(C(F)F)cc(-c4ccccc4)nc23)CC(C)O1 (stereo not drawn) | > 60 µM (inactive) | > 60 µM | > 60 µM
40 | Cc1cc(NC(=O)CSc2nnc(-c3cccnc3)n2C2CCCCC2C)no1 (stereo not drawn) | > 60 µM (inactive) | > 60 µM | > 60 µM
41 | CCCCCn1c(=O)c(C(=O)Nc2c(C)n(C)n(-c3ccccc3)c2=O)c(O)c2ccccc21 | > 60 µM (inactive) | > 60 µM | > 60 µM
42 | O=C(CN1CCN(c2ncccn2)CC1)NCCC1=CCCCC1 | – | > 60 µM | > 60 µM
43 | Cc1sc2nc3c4ccccc4c(NCc4ccco4)nn3c(=O)c2c1C | > 60 µM (inactive) | > 60 µM | 4.2 µM
44 | Clc1ccc(Nc2ncnc3c2cnn3-c2ccccc2)cc1 | > 60 µM (inactive) | > 60 µM | > 60 µM
45 | O=C1/C(=C\c2ccco2)SC(=S)N1Cc1ccccc1 | > 60 µM (inactive) | > 60 µM | 6.46 µM
46 | CCCCC(CC)CNC(=O)CCS(=O)(=O)c1cccc2nsnc12 (stereo not drawn) | > 60 µM (inactive) | > 60 µM | > 60 µM

Row | SMILES | EC50 | EC90 | CC50
47 | O=C1CC(C(=O)Nc2ccccc2)C2(CCCC2)O1 (stereo not drawn) | > 60 µM (inactive) | > 60 µM | > 60 µM
48 | O=C(c1cc2ccccc2o1)n1nnc2ccccc21 | > 60 µM (inactive) | > 60 µM | > 60 µM
49 | CCOCCCNC(=O)C1CCCCN1S(=O)(=O)c1ccc(F)cc1 (stereo not drawn) | > 60 µM (inactive) | > 60 µM | > 60 µM
50 | CCCCN(C(=O)Cn1nnc2ccccc21)C(C(=O)NCCOC)c1ccccc1 (stereo not drawn) | > 60 µM (inactive) | > 60 µM | > 60 µM
51 | Cc1nc2ccc(NC(=O)C3CCN(S(=O)(=O)c4cccs4)CC3)cc2s1 | > 60 µM (inactive) | > 60 µM | > 60 µM
52 | O=C(c1ccc(S(=O)(=O)N2CCOCC2)cc1)N1CCc2ccccc2C1 | > 60 µM (inactive) | > 60 µM | > 60 µM
53 | CC1CCCN(c2ccc(C(=O)NCc3cccs3)cn2)C1 (stereo not drawn) | > 60 µM (inactive) | > 60 µM | > 60 µM
54 | CCCCN(C(=O)Cn1nnc2ccccc21)C(C(=O)NCCOC)c1ccc(OC)cc1OC (stereo not drawn) | > 60 µM (inactive) | > 60 µM | > 60 µM
55 | O=C(O)CCc1nnc2n(Cc3ccc(F)cc3)c(=O)c3ccccc3n12 | > 60 µM (inactive) | > 60 µM | > 60 µM
56 | COc1c(C(C)C)cc(NC(C)=O)cc1C(C)C | > 60 µM (inactive) | > 60 µM | > 60 µM
57 | O=C(O)c1ccc(CN2C(=O)CSC2=S)cc1 | > 60 µM (inactive) | > 60 µM | > 60 µM
58 | Cc1cc(NC(=O)c2noc3c2CCc2ccccc2-3)no1 | > 60 µM (inactive) | > 60 µM | > 60 µM
59 | CN(C)c1cccc(C(=O)Nc2ccc3nc4n(c(=O)c3c2)CCCCC4)c1 | 17.4 µM | > 60 µM | > 60 µM
60 | O=C(Nc1ccccc1)N1CCn2c1nc1ccccc12 | > 60 µM (inactive) | > 60 µM | > 60 µM
61 | Cn1nc([N+](=O)[O-])nc1Sc1nnc(-c2ccccc2)o1 | > 60 µM (inactive) | > 60 µM | > 60 µM
62 | Clc1cccc(Nc2ncnc3c2cnn3-c2ccccc2)c1 | > 60 µM (inactive) | > 60 µM | > 60 µM
63 | Cc1cc2oc(C(=O)Nc3cccnc3)c(C)c2cc1C | > 60 µM (inactive) | > 60 µM | > 60 µM
64 | COCc1cc(=O)n2c(-c3ccc(C)cc3)n[nH]c2n1 | > 60 µM (inactive) | > 60 µM | > 60 µM
65 | Cc1ccc(S(=O)(=O)N2CCCCC2C(=O)NCc2ccco2)cc1 (stereo not drawn) | > 60 µM (inactive) | > 60 µM | > 60 µM
66 | O=Nc1c(O)n(Cc2ccc(Cl)cc2)c2ccccc12 | > 60 µM (inactive) | > 60 µM | > 60 µM
67 | Cc1cc(C(=O)NCc2ccccc2)c(=O)[nH]c1C | > 60 µM (inactive) | > 60 µM | > 60 µM
68 | COc1ccc(OC)c(-n2c(SCC(N)=O)nnc2-c2c[nH]c3ccccc23)c1 | > 60 µM (inactive) | > 60 µM | > 60 µM
69 | COc1ccc(-c2nc3nc(C)c(Cc4ccccc4)c(=O)n3[nH]2)cc1 | > 60 µM (inactive) | > 60 µM | > 60 µM
